The record followed here is publication PMC8434134, “Biflavonoids from Selaginella doederleinii as Potential Antitumor Agents for Intervention of Non-Small Cell Lung Cancer” (Molecules, 2021).

Test [1] deals with A549 cells. As to the kind of experiment: MTT antiproliferative assay, A549. Type of test: cell-based, human. To be noted: mean of n = 3. The source says:
(§1) To evaluate the anti-NSCLC activity of compounds 1–5, we tested their inhibitory effect on the proliferation of two NSCLC cell lines (A549 and H1299) as well as human normal embryonic lung cell line MRC-5 by the MTT assay using Cis-platin (DDP) as a positive control. […] Among them, compounds 1–3 were further studied for their potential apoptosis-mediated death of A549 cells because of their promising antiproliferative activity against NSCLC cells.
(§2) Human lung carcinoma cell lines (A549), human lung adenocarinoma epithelial cell lines (H1299) and human normal embryonic lung cell lines (MRC-5) were purchased from the Chinese Academy of Sciences (Shanghai). H1299 and MRC-5 cells were maintained in RPMI1640 medium, and A549 cell lines were maintained in MEN medium. Both media were supplemented with 10% fetal bovine serum. All of the cell lines were grown at 37 °C in a 5% CO2 atmosphere. The cell lines mentioned above were checked for mycoplasma contamination, and no contamination was observed.
(§3) Cytotoxicity of test compounds was assessed by the MTT assay. A549, H1299 and MRC-5 cells at a final density (3000 cells/well) were placed in 96-well cell plates and treated with or without different concentrations of the test compounds for 24 h. At the end of the treatment, 3-(4,5-dimethyl-2-thiazolyl)-2,5-diphenyl-2-H-tetrazolium bromide (MTT, […], 5 mg/mL) was added into each well, and the cells were further incubated for 4 h. The resulting formazan crystals were dissolved in […] of DMSO and the absorbance was read spectrophotometrically at 570 nm using an enzyme-linked immunosorbent assay plate reader. Experiments were conducted in triplicate. Inhibition rate (%) = [(Acontrol − Atreated)/Acontrol] × 100%. IC50 value represents the half of maximal inhibitory concentration.

The next test deals with caspase-3. Kind of test: Western blot, caspase-3 level in A549 cells. The settings on record: 3 μM, 24 h, β-actin as control. Type of test: cell-based, human. The procedure: (§4) Furthermore, to elucidate the mechanism underlying the apoptosis-inducing activity of compounds 1–3, we examined their regulatory effect on the expression of caspase-3/cleaved-caspase-3, which are hallmarks of apoptosis.
(§5) A549 cells (1 × 10^5/well) were cultured in six-well plates overnight and treated in triplicate with vehicle DMSO (0.1%, v/v) alone, or with indicated compound at 3 μM for 24 h. The cells were harvested and lysed with cell lysis buffer containing protease and phosphatase inhibitor cocktails (Beyotime, Shanghai, China). The concentrations of protein were determined using a BCA protein assay kit (Beyotime, Shanghai, China) and equalized before loading. Samples were denatured and subjected to SDS-PAGE gels followed by transfer to PVDF membrane and probed with specific antibodies against cleaved caspase-3, caspase-3, survivin, XIAP, β-actin, and GAPDH (Abcam, Shanghai, China), and then incubated with the secondary antibodies diluted in TBST. Finally, the protein bands were detected with ECL Western Blotting Kit according to the manufacturer’s specifications. Eventually, films were obtained and the light density of the target bar was analyzed by Image J software.
In general terms: A western blot detects proteins with antibodies after separation by electrophoresis.

The next test has as its system cleaved caspase-3. Kind of test: Western blot, cleaved caspase-3 level in A549 cells. Type of test: cell-based, human. To be noted: 3 μM, 24 h, β-actin as control. The procedure:
as §4, §5

In the next test the test system is MRC-5 cells. Kind of test: MTT cytotoxicity assay, non-cancer MRC-5. Type of test: cell-based. To be noted: mean of n = 3, non-cancer cells.
Text: as §1, §2, §3
(Tetrazolium dyes change colour on reduction, which living cells bring about.)

The next test deals with H1299 cells. As to the kind of experiment: MTT antiproliferative assay, H1299. Type of test: cell-based, human. To be noted: mean of n = 3.
Text: as §1, §2, §3

Test [2] relates to A549 cells. Kind of test: FITC-Annexin V/PI apoptosis assay by flow cytometry. Type of test: cell-based, human. To be noted: 3 μM, 24 h. The procedure: Subsequently, to further verify the apoptosis induction potential of compounds 1–3, quantification of Annexin V-FITC/PI double positive cells was performed using flow cytometry analysis. A549 cells were incubated with indicated compounds, and the percentages of apoptotic A549 cells were determined by FITC-Annexin V and PI staining and flow cytometry.
Cells were incubated in six-well plates (1 × 10^5/well) and treated with vehicle control (i.e., 1% DMSO in buffer) or compounds 1–3 at 3 μM for 24 h, respectively. The collected cells were harvested, washed with PBS, and then stained with FITC-Annexin-V and PI. Apoptosis was determined with flow cytometry.
(In flow cytometry, cells or beads pass a laser one at a time.)

In the next test the test system is survivin. Kind of test: Western blot, survivin expression in A549 cells. Type of test: cell-based, human. To be noted: 3 μM, 24 h, GAPDH as control. As to the method:
(§6) The X-linked mammalian inhibitor of apoptosis protein (XIAP) and survivin, known as the inhibitor-of-apoptosis protein (IAP) members, play an important regulatory role in the caspase-dependent apoptosis. Therefore, the Western blot assay experiments were further performed to examine whether the inhibition of XIAP and survivin were involved in compounds 1–3 induced apoptosis.
as §5

Test [3] concerns A549 cells. As to the kind of experiment: Cell cycle analysis, PI staining and flow cytometry. Type of test: cell-based, human. The settings on record: 24 h. As to the method: In addition to apoptosis, the induction of cell cycle arrest is an important means to control the growth and development of cancer cells. To investigate whether 3 suppressed the cells’ growth by arresting the cell cycle, we performed the experiment where cell cycle distribution was analyzed with flow cytometry after staining the DNA with propidium iodide (PI).
A549 cells were treated with vehicle control (i.e., 1% DMSO in buffer) or compound 3 at indicated concentration for 24 h, respectively. The cells were harvested, washed, then fixed with 70% ethanol at −20 °C for 8 h, and incubated with PI/RNase staining buffer (BD Pharmingen) for 15 min at room temperature (25 °C). The DNA content in the different groups of cells was assessed with flow cytometry and analyzed by the software MODFIT.

The subject of the next test is XIAP. As to the kind of experiment: Western blot, XIAP expression in A549 cells. Type of test: cell-based, human. To be noted: 3 μM, 24 h, GAPDH as control. The procedure: as §6, §5
Where [4] appears, read: Homo sapiens, A549, 24 h treatment.
The mark [5] stands for this setting: Homo sapiens, MRC5, 24 h treatment.
The mark [6] stands for this setting: Homo sapiens, NCI-H1299, 24 h treatment.

As usually defined, the IC50 is the concentration needed to halve the response being measured. `N.N.[Cl][Pt][Cl]` [DDP, Cis-platin, reference compound]: the results for the IC50 in the test on A549 cells [1] (24 h treatment), in the test on MRC-5 cells (24 h treatment) and in the test on H1299 cells (24 h treatment) were 13.3 µM, 49 µM and 24.5 µM, respectively. For the same compound, the “relative level of caspase-3” value in the test on caspase-3 is reported as “enhanced”. Moreover, the “relative level of cleaved caspase-3” value in the test on cleaved caspase-3 was “enhanced”.
With `O=C1C[C@@H](c2ccc(Oc3c(-c4ccc(O)cc4)oc4cc(O)cc(O)c4c3=O)cc2)Oc2cc(O)cc(O)c21` [Compound 1, (2″S)-2″,3″-dihydrodelicaflavone], the IC50 in the test on A549 cells [1] (setting [4]) was 3.1 µM; with MRC-5 cells (setting [5]), above 100 µM; with H1299 cells (setting [6]) it was 7.3 µM. Also, the “apoptosis incidence in A549 cells” value in the test with A549 cells [2] is listed as 41.3%.
With `COc1cc(O)c2c(=O)c(Oc3ccc(-c4cc(=O)c5c(O)cc(O)cc5o4)cc3)c(-c3ccc(O)cc3)oc2c1` [Compound 3, 7-O-methyldelicaflavone], the IC50 in the test with A549 cells [1] (setting [4]) is 2.3 µM; in the test with MRC-5 cells (setting [5]), above 100 µM; in the test with H1299 cells (setting [6]), 4 µM. Further, the “level of survivin expression” value in the test with survivin is “suppressed”. Moreover, the “relative level of caspase-3” value in the test on caspase-3 was “upregulation”. The “relative level of cleaved caspase-3” value in the test with cleaved caspase-3 is listed as “upregulation”. Moreover, the “apoptosis incidence in A549 cells” value in the test with A549 cells [2] was found to be 82.4%. The “G0/G1-phase cells (gate C in Figure 9A)” value in the test with A549 cells [3] (5 μM, control 60.8%) was found to be 45.3%. Further, the “cell cycle arrest, phase” value in the test on A549 cells [3] is reported as “S phase”. In addition, the “percentage of cells at the S phase” value in the test on A549 cells [3] (control 10.6%, concentration not in the sentence (5 μM by Figure 9)) was 24.8%. Also, the “level of XIAP expression” value in the test on XIAP is “suppressed”.
For the compound `O=c1cc(-c2ccc(Oc3c(-c4ccc(O)cc4)oc4cc(O)cc(O)c4c3=O)cc2)oc2cc(O)cc(O)c12` [Compound 5, delicaflavone], the half-inhibitory concentration (IC50) with A549 cells [1] (setting [4]) was found to be 7.9 µM; in the test with MRC-5 cells (setting [5]), 36.8 µM; with H1299 cells (setting [6]), 8.4 µM.
For `Cc1c(O)cc2c(c1O)C(=O)C[C@@H](c1ccc(Oc3c(-c4ccc(O)cc4)oc4cc(O)cc(O)c4c3=O)cc1)O2` [Compound 4, (2″S)-6″-methyl-2″,3″-dihydrodelicaflavone] the same measures were 3.1 µM, 58.2 µM and 6.8 µM.
Turning to `Cc1c(O)cc2oc(-c3ccc(Oc4c(-c5ccc(O)cc5)oc5cc(O)cc(O)c5c4=O)cc3)cc(=O)c2c1O` [Compound 2, 6″-methyldelicaflavone], the 50% inhibitory concentration (IC50) in the test with A549 cells [1] (setting [4]) is 2.8 µM; in the test on MRC-5 cells (setting [5]), above 100 µM; in the test on H1299 cells (setting [6]) it was 7.3 µM. Further, the “apoptosis incidence in A549 cells” value in the test with A549 cells [2] stood at 80.3%.
